Data reported in paper PMC11758266, “Lipid-Modulated, Graduated Inhibition of N-Glycosylation Pathway Priming Suggests Wide Tolerance of ER Proteostasis to Stress” (ACS Central Science, 2024).
“Also recorded” adds a separate entry of the source.

Tests used:
[1] = molecular target: T1, DPAGT1 (Homo sapiens, UniProt Q9H3H5); assay: DPAGT1 radiometric in vitro activity assay (end point, phosphorimaging of radio-TLC); type: biochemical; conditions: for % Activity of DPAGT1 in the presence of a tunicamycin analogue compared to a negative control (GFB): Table S1, analogue 1 µM, DPAGT1 1 µM, dolichyl monophosphate 50 µM, UDP-GlcNAc(1-14C) 50 µM, 37 °C, 21 min, three biological replicates; for DPAGT1 inhibition (in words) / activity at 1 µM: inhibitor 1 µM; for DPAGT1 inhibition (in words): enzyme:inhibitor 1:1, substrates 50 µM; for activity at 1 µM: enzyme:inhibitor 1:1, read-out: retained DPAGT1 activity (% of WT activity)
T1 construct: full-length DPAGT1 bearing an additional tobacco etch virus (TEV) protease-cleavable N-terminal His6 tag; His6 with TEV protease cleavage site ([…]/S leader) (N, cleaved yes); made in house; host or cells: Spodoptera frugiperda Sf9 insect cells (baculovirus, pFB-LIC-Bse vector)
T1 sequence (Q9H3H5 with tags, fused parts or gaps): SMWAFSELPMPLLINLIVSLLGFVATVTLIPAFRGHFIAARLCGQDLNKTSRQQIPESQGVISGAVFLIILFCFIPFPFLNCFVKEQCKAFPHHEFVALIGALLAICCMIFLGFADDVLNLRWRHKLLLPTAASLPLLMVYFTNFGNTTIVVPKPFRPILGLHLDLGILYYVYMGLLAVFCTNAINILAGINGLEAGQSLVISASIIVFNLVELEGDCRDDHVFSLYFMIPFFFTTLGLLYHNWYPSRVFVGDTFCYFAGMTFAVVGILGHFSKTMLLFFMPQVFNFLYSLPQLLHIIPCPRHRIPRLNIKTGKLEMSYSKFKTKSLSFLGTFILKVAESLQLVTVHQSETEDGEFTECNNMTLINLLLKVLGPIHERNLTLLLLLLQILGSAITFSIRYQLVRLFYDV
Excerpt: Figure 2 Design, synthesis and in vitro inhibitory activity of lipid-altered tunicamycins. (A) Structure of DPAGT1 in complex with tunicamycin[21] showing key interactions primarily along TMH5 that in concert with a Trp122 “lid” create the lipid-engagement site (blue). This engagement contrasts with a small, gated pocket below bounded primarily by Leu293 in which only smaller moieties (here an acetamide) are accommodated (red). (B) Guided by this structure, as an apparent snapshot of a Michaelis complex-like mode of binding, modulation at two acyl sites in the core scaffold was explored. […] Semisynthesis allowed generation of graduated lipid tunicamycin analogues through regiochemical differentiation in carbamoylation to generate two key divergent intermediates: Tun-0E,0G and Tun-0E,2G. Subsequent differential acylations allow for generation of both symmetric and asymmetric Tun-XE,YG analogues. Reagents and conditions: (a) Ac2O, pyridine; (b) Boc2O, DMAP, THF; (c) NaOMe, MeOH; (d) 4 M HCl in dioxane, MeOH; (e) HATU, DIPEA, octanoic acid, DMF; (f) HATU, DIPEA, carboxylic acid; (g) HATU, DIPEA, 2 × carboxylic acid. (C) Residual % in vitro activity of DPAGT1 following incubation with analogues [DPAGT1 ([…]), MgCl2 (5 mM), Tun analogue ([…]), dolichol phosphate ([…]), and UDP-GlcNAc(1-^14C) ([…]) in 1% OGNG/CHS/cardiolipin] was assessed through end point assay at 37 °C via phosphorimaging. These were determined on the basis of three biological replicates, each using three technical replicates. Error bars shown are standard deviations.
The intended targeting and graduated modulation of DPAGT1’s PNPT activity was assessed in vitro using a highly pure recapitulated source. Briefly, full-length DPAGT1 bearing an additional tobacco etch virus (TEV) protease-cleavable N-terminal His6 tag was expressed using a baculovirus (DH10Bac)/insect cell (Spodoptera frugiperda Sf9) system using a pFB-LIC-Bse expression vector. DPAGT1 is an integral transmembrane enzyme, and thus, after harvesting and lysis, protein was extracted from the expression host membrane fraction using octyl glucose neopentyl glycol (OGNG) (1% w/v) and cholesterylhemisuccinate (CHS) (0.1% w/v) before isolation and purification by immobilized metal affinity chromatography (IMAC) using a Co^2+-charged (“TALON”) resin and elution with an imidazole gradient. To ensure that there were no confounding effects of the His6 tag, this was then cleaved with TEV protease followed by reverse IMAC and size exclusion chromatography in sequence.
Radiometric bisubstrate analyses allowed excellent sensitivity under the conditions necessary for proper recapitulation of the activity. Purified DPAGT1 (1 μM) was incubated with both substrates, dolichol monophosphate and radiolabeled UDP-N-acetyl-D-[1-^14C]glucosamine, at 50 μM, and the activity was determined directly by end point phosphor detection of product dolichol-PP-N-acetyl-D-[1-^14C]glucosamine formation.
MgCl2, 10 mM imidazole (pH 8.0), 200 mM NaCl , 2 mM TCEP (added fresh), 5% Glycerol, 0.18% OGNG, 0.01 8% CHS, 0.0036% cardiolipin) and the protein was eluted with WB supplemented with 250 mM imidazole (pH 8.0). The eluted protein was desalted using PD-10 columns (GE Healthcare) pre-equilibrated with gel filtration buffer (GFB: 20 mM HEPES (pH […]
cardiolipin). Desalted protein was subsequently treated with 10:1 TEV protease (w:w, protein:enzyme) overnight at 4 ° C. The TEV protease treated protein was separated from the 6-His-tagged enzymes and uncleaved DPAGT1 by incubation for 1 h with Talon resin (prepared as described above) at 4 °C for 1 h. The resin was collected in a column, the flowthrough collected and the protein sample was centrifuged at 21,500 rpm in a Beckman TA25.5 rotor for 10 min at 4 ° C. The supernatant was then concentrated to 0.5 mL using a 30 kDa cutoff PES concentrator (Corning), with mixing every 5 mins during concentration. The […]

[2] = tested on: His-tagged IgG-Fc domain; assay: In cell glycoprotein inhibition assay (IgG-Fc expression, SDS-PAGE and Western blot); type: cell-based, human; conditions: HEK293T cells, 3 days, analogue 10 µM down to 0.5 nM (Tun-8E,2G 300 µM down to 15 nM), Figure S13
[3] = molecular target: T2, DPAGT1 (Homo sapiens, UniProt Q9H3H5); assay: Heat-induced denaturation assay of DPAGT1 with bound ligand; type: binding
T2 sequence (Q9H3H5 1-408): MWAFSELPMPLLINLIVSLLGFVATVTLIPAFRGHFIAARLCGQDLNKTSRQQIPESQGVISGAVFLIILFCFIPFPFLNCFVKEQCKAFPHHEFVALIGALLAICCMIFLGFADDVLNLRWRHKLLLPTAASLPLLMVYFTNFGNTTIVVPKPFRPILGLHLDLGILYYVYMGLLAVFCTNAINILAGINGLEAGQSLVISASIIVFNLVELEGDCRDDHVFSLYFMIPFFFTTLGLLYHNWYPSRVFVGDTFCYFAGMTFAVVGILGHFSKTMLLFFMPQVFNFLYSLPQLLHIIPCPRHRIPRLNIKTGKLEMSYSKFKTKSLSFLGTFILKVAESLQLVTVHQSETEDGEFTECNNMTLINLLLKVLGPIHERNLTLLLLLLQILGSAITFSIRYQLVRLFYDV
Excerpt: The structure of DPAGT1 in complex with the archetypal scaffold natural product tunicamycin[21] […] Trp122 moves so as to use its indole moiety to hydrophobically provide a binding “cap” or “lid” over the proximal portion of the 10′-N lipid chain.

Row | Compound | % Activity of DPAGT1 in the presence of a tunicamycin analogue compared to a negative control (GFB) [1] [%] | DPAGT1 inhibition (in words) [1] | activity at 1 µM [1] [%] | glycosylation state of expressed IgG-Fc (in words) [2] | glycosylation state of expressed IgG-Fc (in words) ([2]; listed as Tun) | Tm,1/2 of DPAGT1 bound to ligand ([3]; heat-induced denaturation, DPAGT1 alone 51.7 ± 0.2 °C) [°C] | ΔTm,1/2 of DPAGT1 ([3]; versus DPAGT1 alone) [°C]
1 | CCCCCCCCC(=O)N[C@H]1[C@@H](O[C@@H]2O[C@H](C[C@@H](O)[C@H]3O[C@@H](n4ccc(=O)[nH]c4=O)[C@H](O)[C@@H]3O)[C@H](O)[C@H](O)[C@H]2NC(=O)CCC)O[C@H](CO)[C@@H](O)[C@@H]1O [Tun-4E,9G] | 93.6 | little to no significant inhibition; also recorded: minimal DPAGT1 inhibition |  |  |  |  | 
2 | CCCCCCCCC(=O)N[C@H]1[C@H](O[C@H]2O[C@H](CO)[C@@H](O)[C@H](O)[C@H]2NC(=O)CC(C)C)O[C@H](C[C@@H](O)[C@H]2O[C@@H](n3ccc(=O)[nH]c3=O)[C@H](O)[C@@H]2O)[C@H](O)[C@@H]1O [Tun-9E,i5G] | 54.8 | increasing inhibitory activity in a graduated manner | 55 |  |  |  | 
3 | CCCCCCCCC(=O)N[C@H]1[C@H](O[C@H]2O[C@H](CO)[C@@H](O)[C@H](O)[C@H]2NC(=O)CCCCCCCC)O[C@H](C[C@@H](O)[C@H]2O[C@@H](n3ccc(=O)[nH]c3=O)[C@H](O)[C@@H]2O)[C@H](O)[C@@H]1O [Tun-9E,9G] | 79.6 | little to no significant inhibition; also recorded: minimal DPAGT1 inhibition |  | expression of intact glycosylated protein |  |  | 
4 | tunicamycin [reference compound] | 0.18 | complete inhibition |  | unglycosylated IgG Fc protein is observed | expression of non-glycosylated IgG-Fc | 83.0 ± 0.4 | 31.3
5 | CCCCCCCC(=O)N[C@H]1[C@H](O[C@H]2O[C@H](CO)[C@@H](O)[C@H](O)[C@H]2NC(C)=O)O[C@H](C[C@@H](O)[C@H]2O[C@@H](n3ccc(=O)[nH]c3=O)[C@H](O)[C@@H]2O)[C@H](O)[C@@H]1O [Tun-8E,2G] | 35.4 | increasing inhibitory activity in a graduated manner | 35 | unglycosylated IgG Fc protein is observed; also recorded: expression of non-glycosylated IgG-Fc |  |  | 
